Consider 9 compounds from PubChem BioAssay (NCI).

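Five compound concentrations were applied to cells in 96-well plates for 48 hours; endpoints were derived by simple linear interpolation of the resulting dose-response curve. At the TGI there is no net growth.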

Test systems include OVCAR-3 ovarian; HOP-62 NSCLC; SF-539 CNS; SK-MEL-28 melanoma; NCI-H23 lung; NCI-H226 lung; RPMI-8226 leukemia; M14 melanoma; MCF7 breast; SK-MEL-2 melanoma; SR leukemia; HCT-15 colon; SK-OV-3 ovarian; HS 578T breast; UACC-257 melanoma; DU-145 prostate; HOP-92 NSCLC; NCI/ADR-RES ovarian.
Common to all, as to test: growth of human tumour cells (NCI), 48 h

On to `O=c1cc(-c2ccccc2)[nH]c2cc3c(cc12)OCO3`, for which the TGI in the assay with OVCAR-3 ovarian was 22.2 µM; in the assay with HOP-62 NSCLC it was greater than 90.3 µM; in the assay on SF-539 CNS, 18.8 µM; with SK-MEL-28 melanoma it was greater than 100 µM; in the assay with NCI-H23 lung it was greater than 28.6 µM; in the assay on NCI-H226 lung, 27.5 µM. The TGI is greater than 80 µM in the assay with RPMI-8226 leukemia; greater than 80.2 µM in the assay on M14 melanoma; greater than 100 µM in the assay on MCF7 breast; greater than 93.2 µM in the assay with SK-MEL-2 melanoma; 67.4 µM in the assay on SR leukemia; greater than 100 µM in the assay with HCT-15 colon. For the same compound, the TGI is 26 µM in the assay on SK-OV-3 ovarian; greater than 100 µM with HS 578T breast; greater than 100 µM with UACC-257 melanoma; greater than 100 µM with DU-145 prostate; greater than 56.5 µM in the assay on HOP-92 NSCLC.

As for `C[C@H]1[C@H](C)CC[C@]2(C)CC[C@]3(C)C(=C[C@@H](O)[C@@H]4[C@@]5(C)[C@H](O)[C@@H](O)[C@H](O)C(C)(C)[C@@H]5CC[C@]43C)[C@H]12`, the TGI in the assay on OVCAR-3 ovarian, with HOP-62 NSCLC, in the assay on SF-539 CNS, in the assay with NCI-H23 lung, in the assay on RPMI-8226 leukemia and in the assay on M14 melanoma was greater than 100 µM throughout. In addition, the TGI with MCF7 breast, in the assay with NCI/ADR-RES ovarian, with SK-MEL-2 melanoma, in the assay on SR leukemia, in the assay with HCT-15 colon and in the assay with SK-OV-3 ovarian was greater than 100 µM throughout. Also, the TGI with HS 578T breast, in the assay with UACC-257 melanoma and in the assay on DU-145 prostate was greater than 100 µM throughout.

As for `CC1=NC(=Cc2ccc(O)cc2)C(=O)N1n1c(-c2ccccc2)nc2ccccc2c1=O`, the TGI in the assay with HOP-62 NSCLC, in the assay with SF-539 CNS, in the assay with SK-MEL-28 melanoma, in the assay with NCI-H23 lung, in the assay on NCI-H226 lung and in the assay on RPMI-8226 leukemia was greater than 100 µM throughout. Also, the TGI in the assay with M14 melanoma, in the assay with MCF7 breast, in the assay with SR leukemia, in the assay on HCT-15 colon, with SK-OV-3 ovarian and with HS 578T breast was greater than 100 µM in each case. The TGI in the assay on UACC-257 melanoma and in the assay with DU-145 prostate was greater than 100 µM in each case.

For `N#CSc1nc[nH]c1C(N)=O`, the TGI in the assay on OVCAR-3 ovarian, with HOP-62 NSCLC, in the assay with SF-539 CNS, in the assay on SK-MEL-28 melanoma, with NCI-H23 lung and in the assay on NCI-H226 lung was greater than 100 µM throughout. Further, the TGI in the assay with RPMI-8226 leukemia is 44.7 µM; with M14 melanoma, greater than 100 µM; with MCF7 breast, greater than 100 µM; with NCI/ADR-RES ovarian, greater than 100 µM; with SK-MEL-2 melanoma, greater than 100 µM; in the assay with HCT-15 colon, greater than 100 µM. The TGI with SK-OV-3 ovarian, with HS 578T breast, with UACC-257 melanoma, in the assay with DU-145 prostate and in the assay on HOP-92 NSCLC was greater than 100 µM throughout.

For the compound `CCN1c2nc3ccccc3nc2N(CC)c2nc3ccccc3nc21`, the TGI in the assay with OVCAR-3 ovarian was greater than 100 µM; in the assay on SF-539 CNS, 94 µM; in the assay on SK-MEL-28 melanoma, greater than 100 µM; in the assay on NCI-H23 lung it was greater than 100 µM; in the assay on NCI-H226 lung, greater than 100 µM; with RPMI-8226 leukemia it was greater than 100 µM. Moreover, the TGI in the assay with M14 melanoma, in the assay with MCF7 breast, in the assay with NCI/ADR-RES ovarian, with SK-MEL-2 melanoma, in the assay with SR leukemia and in the assay with HCT-15 colon was greater than 100 µM each time. In addition, the TGI in the assay with SK-OV-3 ovarian, in the assay with HS 578T breast and in the assay on DU-145 prostate was greater than 100 µM in each case.

As for `CC(=O)Oc1ccccc1-c1cc2ccccc2oc1=O`, the TGI with OVCAR-3 ovarian, in the assay with HOP-62 NSCLC, in the assay on SF-539 CNS, in the assay on SK-MEL-28 melanoma, in the assay on NCI-H23 lung and in the assay on NCI-H226 lung was greater than 100 µM throughout. The TGI with RPMI-8226 leukemia, in the assay on M14 melanoma, with MCF7 breast, in the assay on NCI/ADR-RES ovarian, in the assay with SK-MEL-2 melanoma and in the assay with SR leukemia was greater than 100 µM in each case. The TGI in the assay with HCT-15 colon, in the assay with HS 578T breast, with UACC-257 melanoma and in the assay with DU-145 prostate was greater than 100 µM in each case.

For `COc1ccc(C[N+]23C(CC[C@H]2c2ccccc2)CC[C@H]3c2ccccc2)cc1` (stereo partly drawn), the TGI in the assay on OVCAR-3 ovarian is 37 µM; with HOP-62 NSCLC it was 67.3 µM; in the assay with SK-MEL-28 melanoma, greater than 100 µM; in the assay with NCI-H226 lung, 55 µM; in the assay on RPMI-8226 leukemia, 27 µM; in the assay with M14 melanoma it was 42.4 µM. The TGI in the assay on MCF7 breast is 78.9 µM; in the assay on SK-MEL-2 melanoma, 43 µM; in the assay with SR leukemia, 41.4 µM; in the assay with SK-OV-3 ovarian it was 87.7 µM; in the assay with HS 578T breast, greater than 100 µM; in the assay with UACC-257 melanoma, 50.5 µM. The TGI stood at 77.8 µM with DU-145 prostate and 39.5 µM in the assay on HOP-92 NSCLC.

On to `COc1ccc2c(c1)CN1C(=N2)CSC1c1cc([N+](=O)[O-])ccc1Cl` (stereo not drawn), for which the TGI is greater than 100 µM in the assay with HOP-62 NSCLC; 98.2 µM with SF-539 CNS; greater than 100 µM with NCI-H23 lung; greater than 100 µM in the assay on NCI-H226 lung; 72.3 µM in the assay on RPMI-8226 leukemia; greater than 100 µM in the assay on M14 melanoma. The TGI with MCF7 breast, with NCI/ADR-RES ovarian, in the assay on SK-MEL-2 melanoma, in the assay with SR leukemia, in the assay on HCT-15 colon and in the assay with SK-OV-3 ovarian was greater than 100 µM in each case. The TGI in the assay on HS 578T breast, in the assay with UACC-257 melanoma and in the assay on HOP-92 NSCLC was greater than 100 µM each time.

Regarding `CC1(C)c2ccccc2C(=O)C12CCC(=O)CC2`, the TGI with HOP-62 NSCLC, in the assay with SF-539 CNS, in the assay with SK-MEL-28 melanoma, in the assay on NCI-H23 lung, in the assay on NCI-H226 lung and with M14 melanoma was greater than 100 µM throughout. Besides, the TGI in the assay with MCF7 breast, in the assay with NCI/ADR-RES ovarian, with SK-MEL-2 melanoma, with SR leukemia, in the assay with HCT-15 colon and in the assay with SK-OV-3 ovarian was greater than 100 µM throughout. For the same compound, the TGI in the assay with HS 578T breast, in the assay with UACC-257 melanoma and in the assay on DU-145 prostate was greater than 100 µM each time.
